target: T1, sGC α1/β1 heterodimer stably expressed in CHO-K1 cell line (CHO-K1/sGC) (Homo sapiens, UniProt Q02108+Q02153); test: Cell-based sGC Functional Assay (CASA Assay), cGMP generation; conditions: CHO-K1/sGC cells, 1 hr at 37° C., cGMP by HTRF, 4P fit; presence or absence of 1 μM DETA-NO not given; read-out: IP (nM) (inflection point)
T1 construct: expressed in transfected cells
T1 sequence (Q02108 1-690): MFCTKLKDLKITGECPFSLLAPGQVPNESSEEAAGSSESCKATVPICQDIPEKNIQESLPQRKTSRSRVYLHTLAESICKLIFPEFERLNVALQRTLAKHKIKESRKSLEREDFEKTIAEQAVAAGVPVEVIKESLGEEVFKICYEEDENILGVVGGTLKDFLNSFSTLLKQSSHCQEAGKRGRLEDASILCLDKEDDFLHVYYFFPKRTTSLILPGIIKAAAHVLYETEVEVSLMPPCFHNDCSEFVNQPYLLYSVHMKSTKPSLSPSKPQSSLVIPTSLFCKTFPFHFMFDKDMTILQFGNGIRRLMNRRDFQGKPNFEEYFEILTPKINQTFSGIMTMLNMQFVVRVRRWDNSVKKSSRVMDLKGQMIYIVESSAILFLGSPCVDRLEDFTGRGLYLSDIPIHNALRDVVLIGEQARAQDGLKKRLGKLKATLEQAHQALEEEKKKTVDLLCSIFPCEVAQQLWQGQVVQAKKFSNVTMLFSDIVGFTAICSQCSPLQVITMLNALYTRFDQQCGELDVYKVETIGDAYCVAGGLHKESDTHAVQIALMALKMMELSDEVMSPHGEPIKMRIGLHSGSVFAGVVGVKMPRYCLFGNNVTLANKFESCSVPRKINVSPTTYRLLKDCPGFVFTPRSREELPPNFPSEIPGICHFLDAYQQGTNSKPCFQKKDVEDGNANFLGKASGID
T1 sequence (Q02153 1-619): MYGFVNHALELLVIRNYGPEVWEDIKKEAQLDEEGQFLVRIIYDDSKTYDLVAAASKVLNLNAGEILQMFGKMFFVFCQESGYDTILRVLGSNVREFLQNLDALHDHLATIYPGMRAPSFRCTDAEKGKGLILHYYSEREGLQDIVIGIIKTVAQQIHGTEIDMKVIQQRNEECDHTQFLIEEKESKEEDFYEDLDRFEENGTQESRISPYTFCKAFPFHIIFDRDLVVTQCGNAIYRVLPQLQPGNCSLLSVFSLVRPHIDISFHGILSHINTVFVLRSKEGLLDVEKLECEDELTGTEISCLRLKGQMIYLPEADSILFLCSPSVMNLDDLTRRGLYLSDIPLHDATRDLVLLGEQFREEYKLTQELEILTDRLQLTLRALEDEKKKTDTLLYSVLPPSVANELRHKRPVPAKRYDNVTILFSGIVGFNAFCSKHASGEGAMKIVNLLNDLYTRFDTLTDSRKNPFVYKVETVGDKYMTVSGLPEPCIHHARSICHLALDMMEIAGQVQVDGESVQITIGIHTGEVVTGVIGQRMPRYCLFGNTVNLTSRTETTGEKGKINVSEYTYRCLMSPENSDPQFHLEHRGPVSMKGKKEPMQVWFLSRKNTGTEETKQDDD
Description: sGC is a heme-containing enzyme that converts GTP to secondary messenger cGMP. Increases in cGMP levels affect several physiological processes including vasorelaxation through multiple downstream pathways. […] Heme-dependent activators (HDAs) preferentially activate sGC containing a ferrous heme group. To determine the effect of sGC activators on enzyme activity, the CASA assay was developed to monitor the generation of cGMP in a cell line that stably expresses the heterodimeric sGC protein.
A CHO-K1 cell line stably expressing the sGC α1/β1 heterodimer was generated using a standard transfection protocol. CHO-K1 cells were transfected with plasmids pIREShyghsGCα1 and pIRESneo-hsGCβ1 simultaneously using FUGENE reagent. Clones that stably express both subunits were selected with hygromycin and neomycin for ˜2 weeks. Clone #7 was chosen for the assay and was designated CHO-K1/sGC. CHO-K1/sGC cells were maintained in F-K12 medium containing 10% heat-inactivated Fetal Bovine Serum (FBS), 100 μg/mL penicillin/streptomycin, 0.5 mg/mL hygromycin and 0.25 mg/mL G418. The cells were then cryopreserved in LN2. On the day of the assay, cells thawed and resuspended in EBSS Assay Buffer (Sigma, E3024) supplemented with 5 mM MgCl2, 10 mM HEPES (4-(2-hydroxyethyl)piperazine-1-ethanesulfonic acid) and 0.05% BSA (bovine serum albumin) (EAB) and cell density was then adjusted to 4×10^5/mL with EAB, IBMX (3-isobutyl-1-methylxanthin, 0.5 mM) was added to inhibit degradation of cGMP. Compounds were diluted from DMSO stock solutions and added to the assay at a final DMSO concentration of 2.5%. Cells were incubated with compounds in the presence and absence of 1 μM of Diethylenetriamine/nitric oxide adduct (DETA-NO; Sigma, 17018) for 1 hr at 37° C. At the end of the incubation period, the reaction was terminated and the cells were lysed with the detection reagents from Cisbio Kits. The level of intracellular cGMP was determined using an HTRF-based assay kit (CisBio, 62GM2PEC), which detects the displacement of a fluorescence labeled cGMP from its specific antibody. The cGMP produced by test compounds was directly compared to the maximum cGMP production (this value was set to equal 100% activation.) of the published sGC-HDA Compound A:
[drawing 300] (Example 1 in WO 2010/065275, published Jun. 10, 2010). The test compounds' activities were then expressed as a percentage of Compound A, the standard in every experiment. This percent activation was calculated either in the presence or absence of DETA-NO which was then plotted. IP and maximum fold induction was derived using ADA analysis software for 4P fit.
The compounds in the Examples of the instant invention had inflection points (IP) less than or equal to 10 μM and more particularly less than or equal to about 1 μM.

EC50 [nM]	SMILES
13.1	CC(F)(F)c1ccc(C2(C)C(=O)Nc3nc(-c4cn5ncnc5c(CCC(F)(F)C(F)(F)F)n4)nc(N)c32)cn1 (racemic) [Example 16B, 4-amino-5-(6-(1,1-difluoroethyl)pyridin-3-yl)-5-methyl-2-(8-(3,3,4,4,4-pentafluorobutyl)-[1,2,4]triazolo[1,5-a]pyrazin-6-yl)-5H-pyrrolo[2,3-d]pyrimidin-6(7H)-one]
36.1	Cc1ccc(C2(C3CC3)C(=O)Nc3nc(-c4cn5ncnc5c(CCC(F)(F)C(F)(F)F)n4)nc(N)c32)nc1 (racemic) [Example 17B, 4-amino-5-cyclopropyl-5-(5-methylpyridin-2-yl)-2-(8-(3,3,4,4,4-pentafluorobutyl)-[1,2,4]triazolo[1,5-a]pyrazin-6-yl)-5H-pyrrolo[2,3-d]pyrimidin-6(7H)-one]
43.1	Cc1cnc(C2(C3CC3)C(=O)Nc3nc(-c4cn5ncnc5c(CCC(F)(F)C(F)(F)F)n4)nc(N)c32)cn1 (racemic) [Example 21B, 4-amino-5-cyclopropyl-5-(5-methylpyrazin-2-yl)-2-(8-(3,3,4,4,4-pentafluorobutyl)-[1,2,4]triazolo[1,5-a]pyrazin-6-yl)-5H-pyrrolo[2,3-d]pyrimidin-6(7H)-one]
44.2	CC(F)(F)c1ccc(C2(C)C(=O)Nc3nc(-c4cn5ncnc5c(CCCC(F)(F)F)n4)nc(N)c32)cn1 (racemic) [Example 45B, 4-amino-5-(6-(1,1-difluoroethyl)pyridin-3-yl)-5-methyl-2-(8-(4,4,4-trifluorobutyl)-[1,2,4]triazolo[1,5-a]pyrazin-6-yl)-5H-pyrrolo[2,3-d]pyrimidin-6(7H)-one]
144	Cc1ccc(C2(C3CC3)C(=O)Nc3nc(-c4cn5ncnc5c(CCCC(F)(F)F)n4)nc(N)c32)nc1 (racemic) [Example 47B, 4-amino-5-cyclopropyl-5-(5-methylpyridin-2-yl)-2-(8-(4,4,4-trifluorobutyl)-[1,2,4]triazolo[1,5-a]pyrazin-6-yl)-5H-pyrrolo[2,3-d]pyrimidin-6(7H)-one]
595	Cc1nc(C2(C)C(=O)Nc3nc(-c4cn5ncnc5c(CCCC(F)(F)F)n4)nc(N)c32)ccc1C(F)(F)F (racemic) [Example 49B, 4-amino-5-methyl-5-(6-methyl-5-(trifluoromethyl)pyridin-2-yl)-2-(8-(4,4,4-trifluorobutyl)-[1,2,4]triazolo[1,5-a]pyrazin-6-yl)-5H-pyrrolo[2,3-d]pyrimidin-6(7H)-one]
15.1	CC1(c2ncc(C(F)(F)F)cn2)C(=O)Nc2nc(-c3cn4ncnc4c(CCCC(F)(F)F)n3)nc(N)c21 (racemic) [Example 51B, 4-amino-5-methyl-2-(8-(4,4,4-trifluorobutyl)-[1,2,4]triazolo[1,5-d]pyrazin-6-yl)-5-(5-(trifluoromethyl)pyrimidin-2-yl)-5H-pyrrolo[2,3-d]pyrimidin-6(7H)-one]
28.5	CCCCc1nc(-c2nc(N)c3c(n2)NC(=O)C3(c2ccc(C)cn2)C2CC2)cn2ncnc12 (racemic) [Example 72B, 4-amino-2-(8-butyl-[1,2,4]triazolo[1,5-a]pyrazin-6-yl)-5-cyclopropyl-5-(5-methylpyridin-2-yl)-5H-pyrrolo[2,3-d]pyrimidin-6(7H)-one]
128	Nc1nc(-c2cn3ncnc3c(CCCC(F)(F)F)n2)nc2c1C(c1ccc(C(F)(F)F)cn1)(C1CC1)C(=O)N2 (single isomer, unassigned) [Example 2A, 4-Amino-5-cyclopropyl-2-(8-(4,4,4-trifluorobutyl)-[1,2,4]triazolo[1,5-a]pyrazin-6-yl)-5-(5-(trifluoromethyl)pyridin-2-yl)-5H-pyrrolo[2,3-d]pyrimidin-6(7H)-one]
219	Cc1nnc(C2(C)C(=O)Nc3nc(-c4cn5ncnc5c(CCC(F)(F)C(F)(F)F)n4)nc(N)c32)o1 (single isomer, unassigned) [Example 97B, 4-Amino-5-methyl-5-(5-methyl-1,3,4-oxadiazol-2-yl)-2-(8-(3,3,4,4,4-pentafluorobutyl)-[1,2,4]triazolo[1,5-a]pyrazin-6-yl)-5H-pyrrolo[2,3-d]pyrimidin-6(7H)-one]
488	Nc1nc(-c2cn3ncnc3c(CCCC(F)(F)F)n2)nc2c1C(c1ncc(C(F)(F)F)cn1)(C1CC1)C(=O)N2 (single isomer, unassigned) [Example 180B, 4-amino-5-cyclopropyl-2-(8-(4,4,4-trifluorobutyl)-[1,2,4]triazolo[1,5-a]pyrazin-6-yl)-5-(5-(trifluoromethyl)pyrimidin-2-yl)-5,7-dihydro-6H-pyrrolo[2,3-d]pyrimidin-6-one]
40.4	CC1(c2ccc(Cl)cn2)C(=O)Nc2nc(-c3cn4ncnc4c(CCC(F)(F)C(F)(F)F)n3)nc(N)c21 (stereo not drawn) [Example 3A, 4-amino-5-(5-chloropyridin-2-yl)-5-methyl-2-(8-(3,3,4,4,4-pentafluorobutyl)-[1,2,4]triazolo[1,5-a]pyrazin-6-yl)-5H-pyrrolo[2,3-d]pyrimidin-6(7H)-one]
20.9	CC1(c2ccc(Cl)c(F)c2)C(=O)Nc2nc(-c3cn4ncnc4c(CCC(F)(F)C(F)(F)F)n3)nc(N)c21 (stereo not drawn) [Example 5B, 4-amino-5-(4-chloro-3-fluorophenyl)-5-methyl-2-(8-(3,3,4,4,4-pentafluorobutyl)-[1,2,4]triazolo[1,5-a]pyrazin-6-yl)-5H-pyrrolo[2,3-d]pyrimidin-6(7H)-one]
27	Nc1nc(-c2cn3ncnc3c(CCC(F)(F)C(F)(F)F)n2)nc2c1C(c1ccc(F)c(F)c1)(C1CC1)C(=O)N2 (stereo not drawn) [Example 6A, 4-amino-5-cyclopropyl-5-(3,4-difluorophenyl)-2-(8-(3,3,4,4,4-pentafluorobutyl)-[1,2,4]triazolo[1,5-a]pyrazin-6-yl)-5H-pyrrolo[2,3-d]pyrimidin-6(7H)-one]
41.4	Nc1nc(-c2cn3ncnc3c(CCC(F)(F)C(F)(F)F)n2)nc2c1C(c1ccc(Cl)cn1)(C1CC1)C(=O)N2 (stereo not drawn) [Example 7A, 4-amino-5-(5-chloropyridin-2-yl)-5-cyclopropyl-2-(8-(3,3,4,4,4-pentafluorobutyl)-[1,2,4]triazolo[1,5-a]pyrazin-6-yl)-5H-pyrrolo[2,3-d]pyrimidin-6(7H)-one]
